Measurements as given in patent publication US20220033448A1, “METHODS FOR AGGREGATION OF PROTEINS” (priority 2011, published 2022).
No end group written: not given here.

Key:
[1] = tested on: S. epidermidis strain ATCC 12228 and S. aureus ATCC; type: cell-based, Staphylococcus
Experimental: Time-kill curves were obtained to study the kinetics of bactericidal activity. Compounds C30, Hit50 and C29 (for sequences see above) were tested against S. epidermidis strain ATCC 12228 and S. aureus ATCC at the compound's MIC and two times MIC value. It was shown that compound C30 decreased the viable counts by 100% within 5 min, while Hit50 reduced the viable counts by ^˜3 log units after the same incubation period, both at a concentration that equaled its MIC value (see FIG. 11A and FIG. 11B). […] For example the time needed to decrease the number of CFU/ml one-fold for C29 was 60 minutes (at the minimum inhibitory concentration), and only 10 minutes for 2×MIC.

[2] = tested on: Human embryonic kidney (HEK293T) cells; conditions: 50 μg/ml (C30: 50 μg/ml or beyond)
[3] = tested on: human embryonic kidney cells (HEK293T cell line); conditions: concentrations lower than 100 μg/ml; HEK293T
From the text: Alamar blue assay allowed monitoring of the total percentage of cell growth recovery in time in the presence of peptides.

VRE strains = experiment: MIC, microbroth dilution; conditions: planktonic, 18 hours
Experimental: Bacteria were grown in a shaking incubator at 37° C. and 160rpm in 50 ml BHI , using individual colonies retrieved from a fresh overnight TSA-sheep blood plate. The cultures were grown to a density of approximately 1×10^8cells/ml and then diluted to 5×10^5 cells/ml in CAMHB (Mc Farland 0.5). Each well contained 100p.I (50p.I of peptide containing MHB plus 50 μl inoculum). The final cell density was 1×10^5 to 5×10^5/ml. After addition of the cell suspension, plates were incubated at 37° C. for 18 to 24 hours. The optical density at 590 nm (OD590) of each well was measured after 5 seconds of shaking the plate using Perkin Elmer spectrophotometer (1420 Multilabel Counter Vicotr 3). […] Each well, where no growth was observed, was also plated on TSA-sheep blood agar plates, incubated at 37° C. overnight and visually inspected.

RILLGLIRRGSRILLGLIRR [C30]
time needed to kill Staphylococci [1]: 5 to 10 min
decrease of viable counts ([1]; Staphylococcus epidermidis and Staphylococcus aureus, 5 min, 1 ×MIC): 100%
maximal increase of the MIC (MRSA strain 326; 31 days, concentration in medium adjusted to MIC of previous day): ≤ 4 fold
MIC on the last day of the experiment (MRSA strain 326; day 31): 12,5 μg/ml
LDH release [2]: higher than 50%
viability of mammalian cells [3]: viability of mammalian cells is not significantly affected
MIC (VRE strains; VRE 8): VRE 8: 3 μg/ml
MIC (VRE strains; VRE 11): VRE 11: 1.5 μg/ml
MIC (VRE strains; VRE 12): VRE 12: 12.5 μg/ml
MIC (VRE strains; VRE 40): VRE 40: 3 μg/ml
MIC (VRE strains; VRE 54): VRE 54: 3 μg/ml
MIC (VRE strains; VRE 60): VRE 60: 3 μg/ml
MIC (VRE strains; VRE 70): VRE 70: 1.5 μg/ml
